# In publication PMC4129951 (Nature chemical biology, 2010):
# How the values were obtained:
# [1] = molecular target: T1, LysC; aspartokinase III (Escherichia coli, UniProt P08660); assay: in vitro reaction, product confirmed by LC-MS; assay type: biochemical; conditions: product trapped with L-Cys as β-aspartyl cysteine
# T1 sequence (P08660 2-449): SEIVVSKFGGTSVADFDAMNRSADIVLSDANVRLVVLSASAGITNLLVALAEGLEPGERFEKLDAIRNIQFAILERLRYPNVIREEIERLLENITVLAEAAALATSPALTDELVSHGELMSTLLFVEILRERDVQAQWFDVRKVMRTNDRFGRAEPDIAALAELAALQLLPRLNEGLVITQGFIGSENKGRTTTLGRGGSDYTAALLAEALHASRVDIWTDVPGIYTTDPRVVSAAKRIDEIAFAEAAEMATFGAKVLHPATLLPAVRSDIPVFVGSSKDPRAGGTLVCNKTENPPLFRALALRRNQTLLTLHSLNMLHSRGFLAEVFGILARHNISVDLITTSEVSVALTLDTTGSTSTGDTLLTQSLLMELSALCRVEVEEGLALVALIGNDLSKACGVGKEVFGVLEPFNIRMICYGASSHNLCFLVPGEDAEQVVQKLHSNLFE
# [2] = molecular target: T2, ProA(wt); γ-glutamyl phosphate reductase (Escherichia coli, UniProt P07004); assay: NADPH oxidation in coupled assay with ProB; assay type: biochemical; conditions: γ-glutamyl phosphate formed in situ by ProB from L-Glu
# T2 sequence (P07004 1-417): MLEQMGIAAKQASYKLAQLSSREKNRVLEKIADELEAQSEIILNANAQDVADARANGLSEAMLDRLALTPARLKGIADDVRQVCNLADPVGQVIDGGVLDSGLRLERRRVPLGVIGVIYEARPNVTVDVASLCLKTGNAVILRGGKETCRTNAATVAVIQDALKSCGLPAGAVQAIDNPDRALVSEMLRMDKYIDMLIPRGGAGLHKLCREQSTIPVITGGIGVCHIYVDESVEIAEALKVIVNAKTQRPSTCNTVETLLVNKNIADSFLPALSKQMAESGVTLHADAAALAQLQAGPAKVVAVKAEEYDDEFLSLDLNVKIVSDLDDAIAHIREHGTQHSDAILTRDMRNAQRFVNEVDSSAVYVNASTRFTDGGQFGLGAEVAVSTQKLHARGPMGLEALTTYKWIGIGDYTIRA
SMILES,"in vitro reaction, product confirmed by LC-MS [1]",NADPH oxidation in coupled assay with ProB [2]
N[C@@H](CC(=O)O)C(=O)O [L-Asp],LysC from E. coli was used to convert L-Asp to β-aspartyl phosphate,–
NC(=O)C1=CN([C@@H]2O[C@H](COP(=O)(O)OP(=O)(O)OC[C@H]3O[C@@H](n4cnc5c(N)ncnc54)[C@H](OP(=O)(O)O)[C@@H]3O)[C@@H](O)[C@H]2O)C=CC1 [NADPH],–,"A coupled in vitro assay, which measures NADPH oxidation by ProA(wt)"
